The source of these data is patent publication US9604923B2 (H. LEE MOFFITT CANCER CENTER AND RESEARCH INSTITUTE, INC., priority 2006, dated 2017).

One assay has as its target STAT3 (Mus musculus, UniProt P42227). Briefly: Inhibition of STAT3 dimerization, EMSA assay. Also on record: endogenous in cells; host or cells: nuclear extracts per the general EMSA method. Type of assay: binding.
For the next assay, the target named is T1, Stat3:3 (Mus musculus, UniProt P42227).
T1 construct: endogenous in cells; host or cells: NIH3T3/v-Src or EGF-stimulated NIH3T3/hEGFR mouse fibroblasts, nuclear extracts
T1 sequence (P42227 2-770 limits assumed): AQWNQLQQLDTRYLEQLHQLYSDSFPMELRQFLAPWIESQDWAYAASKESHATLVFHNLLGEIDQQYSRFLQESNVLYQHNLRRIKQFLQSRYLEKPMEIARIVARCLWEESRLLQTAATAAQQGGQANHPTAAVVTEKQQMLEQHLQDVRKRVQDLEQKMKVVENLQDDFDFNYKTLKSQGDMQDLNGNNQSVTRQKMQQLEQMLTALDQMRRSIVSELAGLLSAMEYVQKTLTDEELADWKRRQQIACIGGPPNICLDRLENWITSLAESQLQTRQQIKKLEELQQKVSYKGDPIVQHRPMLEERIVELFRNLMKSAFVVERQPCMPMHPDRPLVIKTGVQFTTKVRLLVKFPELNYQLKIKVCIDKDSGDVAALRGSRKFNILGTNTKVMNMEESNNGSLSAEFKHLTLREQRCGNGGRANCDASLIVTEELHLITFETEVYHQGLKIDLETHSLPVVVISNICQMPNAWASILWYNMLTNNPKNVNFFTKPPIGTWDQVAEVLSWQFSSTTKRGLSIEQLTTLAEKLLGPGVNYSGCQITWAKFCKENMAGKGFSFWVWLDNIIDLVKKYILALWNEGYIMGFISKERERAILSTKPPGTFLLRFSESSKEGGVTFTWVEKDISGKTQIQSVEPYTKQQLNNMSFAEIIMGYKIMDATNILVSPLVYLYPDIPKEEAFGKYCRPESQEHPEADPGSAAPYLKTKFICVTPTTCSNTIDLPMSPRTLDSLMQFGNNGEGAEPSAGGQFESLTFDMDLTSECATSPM
Kind of assay: STATs DNA-binding activity in vitro, EMSA with hSIE probe. The following applies: for IC50: Table 4, read-out: IC50 values for the inhibition of STATs DNA-binding activity in vitro, Stat3:3; for selectivity among STAT family members, in words: nuclear extracts of EGF-stimulated NIH3T3/hEGFR.

The target in a further assay is T2, Stat1:3 (Mus musculus, UniProt P42227).
T2 construct: endogenous in cells; host or cells: EGF-stimulated NIH3T3/hEGFR mouse fibroblasts, nuclear extracts
T2 sequence (P42227 2-770 limits assumed): as above
Described as above. Particulars: Table 4; read-out: IC50 values for the inhibition of STATs DNA-binding activity in vitro, Stat1:3.

The next assay addresses T3, Stat1:1 (Mus musculus, UniProt P42225).
T3 construct: endogenous in cells; host or cells: EGF-stimulated NIH3T3/hEGFR mouse fibroblasts, nuclear extracts
T3 sequence (P42225 2-749 limits assumed): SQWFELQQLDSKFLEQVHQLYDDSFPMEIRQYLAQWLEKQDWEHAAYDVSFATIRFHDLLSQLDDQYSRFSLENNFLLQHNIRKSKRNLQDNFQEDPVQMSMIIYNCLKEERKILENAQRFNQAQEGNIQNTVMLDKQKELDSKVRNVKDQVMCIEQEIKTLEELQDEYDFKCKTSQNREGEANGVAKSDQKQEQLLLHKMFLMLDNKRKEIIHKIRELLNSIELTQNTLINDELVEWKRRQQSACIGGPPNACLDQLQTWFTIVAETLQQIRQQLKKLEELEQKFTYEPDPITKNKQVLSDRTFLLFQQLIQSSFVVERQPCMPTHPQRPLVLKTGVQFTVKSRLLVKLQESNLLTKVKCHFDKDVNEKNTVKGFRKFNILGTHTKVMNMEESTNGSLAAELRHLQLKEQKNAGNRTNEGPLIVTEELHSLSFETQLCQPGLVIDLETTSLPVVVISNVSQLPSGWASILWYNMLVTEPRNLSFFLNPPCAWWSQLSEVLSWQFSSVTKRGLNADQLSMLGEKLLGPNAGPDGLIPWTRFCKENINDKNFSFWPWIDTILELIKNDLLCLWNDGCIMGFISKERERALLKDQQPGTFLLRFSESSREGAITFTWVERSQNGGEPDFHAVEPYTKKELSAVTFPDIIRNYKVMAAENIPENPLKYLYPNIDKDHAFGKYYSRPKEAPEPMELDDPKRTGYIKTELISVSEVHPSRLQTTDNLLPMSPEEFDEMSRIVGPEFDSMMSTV
Briefly: STATs DNA-binding activity in vitro, EMSA. Particulars: Table 4; read-out: IC50 values for the inhibition of STATs DNA-binding activity in vitro, Stat1:1.

In a further assay the target is Stat5:5. Kind of assay: STATs DNA-binding activity in vitro, EMSA with MGFe probe. Also on record: species or system mouse. The following applies: Table 4; read-out: IC50 values for the inhibition of STATs DNA-binding activity in vitro, Stat5:5.

Sequence of STAT3 (P42227 2-770 limits assumed): as the sequence (P42227 2-770 limits assumed) above

In the case of `Cc1ccc(S(=O)(=O)OCC(=O)Nc2ccccc2)cc1` [Compound 6, 2-Oxo-2-(phenylamino)ethyl 4-methylbenzenesulfonate], the IC50 on STAT3 was > 500 µM.
As for `Cc1ccc(S(=O)(=O)OCC(=O)Nc2ccc(C#N)cc2)cc1` [Compound 7, 2-(4-Cyanophenylamino)-2-oxoethyl 4-methylbenzenesulfonate], the IC50 at STAT3 is > 500 µM.
For `Cc1ccc(S(=O)(=O)OCC(=O)Nc2ccc(S(N)(=O)=O)cc2)cc1` [Compound 8, 2-Oxo-2-(4-sulfamoylphenylamino)ethyl 4-methylbenzenesulfonate], the IC50 against STAT3 was > 500 µM.
In the case of `Cc1ccc(S(=O)(=O)NCC(=O)Nc2ccc(C(=O)O)c(O)c2)cc1` [Compound 11], the IC50 on STAT3 is > 500 µM.
Regarding `O=C(COS(=O)(=O)c1ccc(-c2ccc(Cl)cc2)cc1)Nc1ccc(C(=O)O)c(O)c1` [Compound 15, 4-(2-(4′-Chlorobiphenyl-4-ylsulfonyloxy)acetamido)-2-hydroxybenzoic acid], the IC50 at STAT3 was > 500 µM.
The same measure, in the same setting: next, `O=C(COS(=O)(=O)c1ccc(-c2ccccc2)cc1)Nc1ccc(C(=O)O)cc1` [Compound 20, 4-(2-(Biphenyl-4-ylsulfonyloxy)acetamido)benzoic acid]: > 500 µM; `O=C(COCc1ccccc1)Nc1ccc(C(=O)O)cc1` [Compound 22, 4-(2-(Benzyloxy)acetamido)benzoic acid]: > 500 µM; `O=C(COCc1ccccc1)Nc1ccc(C(=O)O)c(O)c1` [Compound 23, 4-(2-(Benzyloxy)acetamido)-2-hydroxybenzoic acid]: > 500 µM.
With `O=C(CCS(=O)(=O)c1ccccc1)Nc1ccc(C(=O)O)c(O)c1` [Compound 24, 4-(3-(Phenylsulfonyl)propanamido)-2-hydroxybenzoic acid], the IC50 at STAT3 is < 500 µM.
For `O=C(CCS(=O)(=O)c1ccccc1)Nc1ccc(C(=O)O)cc1` [Compound 25, 4-(3-(Phenylsulfonyl)propanamido)benzoic acid], the IC50 at STAT3 was < 500 µM.
Take `O=C(CCCc1ccccc1)Nc1ccc(C(=O)O)cc1` [Compound 27, 4-(4-Phenylbutanamido)benzoic acid]: the IC50 at STAT3 is > 500 µM.
On to `N#Cc1ccc(NC(=O)CNS(=O)(=O)c2ccc(-c3ccccc3)cc2)cc1` [Compound 28, 2-(Biphenyl-4-ylsulfonamido)-N-(4-cyanophenyl)acetamide], for which, at STAT3, the IC50 is > 500 µM.
Regarding `O=C(CNS(=O)(=O)c1ccc(-c2ccccc2)cc1)Nc1ccc(S(=O)(=O)O)cc1` [Compound 29, 4-(2-(Biphenyl-4-ylsulfonamido)acetamido)benzenesulfonic acid], the IC50 against STAT3 is > 500 µM.
On the same count and under the same terms, next, `NS(=O)(=O)c1ccc(NC(=O)CNS(=O)(=O)c2ccc(-c3ccccc3)cc2)cc1` [Compound 30, 2-(Biphenyl-4-ylsulfonamido)-N-(4-sulfamoylphenyl)acetamide]: > 500 µM; `O=C(CNS(=O)(=O)c1ccc(-c2ccc(Cl)cc2)cc1)Nc1ccc(C(=O)O)cc1` [Compound 31]: > 500 µM; `O=C(CNS(=O)(=O)c1ccc(-c2ccccc2)cc1)Nc1ccc(C(=O)O)cc1` [Compound 32]: > 500 µM.
For `Cc1ccc(S(=O)(=O)NCC(CC(=O)Nc2ccccc2)c2ccc(Cl)cc2)cc1` (stereo not drawn) [Compound 36, 3-(4-Chlorophenyl)-4-(4-methylphenylsulfonamido)-N-phenylbutanamide], the IC50 at STAT3 is < 500 µM.
As for `CCOC(=O)c1ccc(NC(=O)CCc2ccc3ccccc3c2)cc1` [Compound 69, Ethyl 4-(3-(naphthalen-2-yl)propanamido)benzoate], the IC50 against STAT3 is > 500 µM.
On to `O=C(CCc1ccccc1)Nc1ccc(C(=O)O)cc1` [Compound 72, 4-(3-Phenylpropanamido)benzoic acid], for which the half-maximal inhibitory concentration (IC50) against STAT3 was > 500 µM.
As for `O=C(CCc1ccccc1)Nc1ccc(C(=O)O)c(O)c1` [Compound 73, 4-(3-Phenylpropanamido)-2-hydroxybenzoic acid], the IC50 on STAT3 was > 500 µM.
As to `COC(=O)c1ccc2cc(C(=O)Nc3cc(C(=O)O)ccc3O)ccc2c1` [Compound 75, 4-hydroxy-3-(6-(methoxycarbonyl)-2-naphthamido)benzoic acid], the IC50 against STAT3 was < 500 µM.
With `O=C1C=C(Nc2ccc(S(=O)(=O)Nc3ccccn3)cc2)C(=O)C=C1Nc1ccc(S(=O)(=O)Nc2ccccn2)cc1` [NSC 11421], the “inhibition of Stat3 DNA-binding activity, in words” value (“inhibition” for short) at Stat3:3 is “notable potent inhibitors”. For the same compound, the half-inhibitory concentration (IC50) worked out at 80 µM on Stat3:3, 145 µM on Stat1:3, 105 µM on Stat1:1 and 221 µM on Stat5:5.
Take `O=C1c2ccccc2-c2ccc(N(Cc3ccc([N+](=O)[O-])cc3)Cc3ccc([N+](=O)[O-])cc3)cc21` [NSC 24056]: the IC50 at Stat3:3 was 245 µM; at Stat1:3, 256 µM; at Stat1:1, 267 µM; on Stat5:5, 235 µM.
For the compound `C=CC1=C(C)/C(=C/c2[nH]c(Cc3[nH]c(/C=C4\NC(=O)C(C)=C4C=C)c(C)c3CCC(=O)O)c(CCC(=O)O)c2C)NC1=O` [NSC 26685], the IC50 was 85 µM at Stat3:3, 68 µM at Stat1:3, 95 µM at Stat1:1 and 125 µM at Stat5:5.
Regarding `O=C(O)c1cc(O)c(O)c(OC(=O)c2cc(O)c(O)c(O)c2CNc2ccc3cc(S(=O)(=O)O)cc(S(=O)(=O)O)c3c2)c1` [NSC 42067], the “inhibition” value at Stat3:3 is on record as “Potent inhibition”. The IC50 at Stat3:3 turned out to be 65 µM; on Stat1:3, 86 µM; on Stat1:1, 197 µM; at Stat5:5 it was 88 µM. Besides, the “selectivity among STAT family members, in words” value on Stat3:3 is “preferentially inhibit Stat3 and Stat5 over that of Stat1”.
Take `CC(CCC(=O)O)(c1ccc(OC(=O)Nc2ccccc2Cl)cc1)c1ccc(OC(=O)Nc2ccccc2Cl)cc1` [NSC 51926]: the IC50 on Stat3:3 is 292 µM; on Stat1:3, 300 µM; on Stat1:1, 300 µM; on Stat5:5, > 300 µM.
For the compound `O=C(Nc1cccc(NC(=O)C(=O)O)c1)Oc1ccccc1` [NSC 71906], the IC50 on Stat3:3 is 295 µM; at Stat1:3 it was 258 µM; at Stat1:1, 225 µM; on Stat5:5, 285 µM.
Regarding `Cc1cc(N=Nc2ccc(-c3ccc(N=Nc4ccc(O)c(C(=O)O)c4)cc3)cc2)c(N)c(N=Nc2cc(C(=O)O)ccc2Cl)c1N.[Na+]` [NSC 75912], the “inhibition” value at Stat3:3 was “Potent inhibition”. Moreover, the IC50 on Stat3:3 was 160 µM; at Stat1:3 it was 104 µM; at Stat1:1, 72 µM; on Stat5:5, > 300 µM. For the same compound, the “selectivity among STAT family members, in words” value on Stat3:3 is on record as “preferentially inhibits Stat1 over Stat3 or Stat5”.
As to `Cc1cc(N=Nc2ccc(-c3ccc(N=Nc4ccc(O)c(C(=O)O)c4)cc3)cc2)c(N)c(N=Nc2cccc(OCC(=O)O)c2)c1N` [NSC 75914], the IC50 at Stat3:3 was 276 µM; at Stat1:3, 263 µM; at Stat1:1, 113 µM; at Stat5:5, > 300 µM.
Regarding `O=C(OC1COC(n2c(=O)oc3cc([N+](=O)[O-])ccc32)C(OC(=O)c2ccccc2)C1OC(=O)c1ccccc1)c1ccccc1` (stereo not drawn) [NSC 87849], the IC50 at Stat3:3, at Stat1:3, on Stat1:1 and at Stat5:5 was > 300 µM throughout.
As to `CN=C(Nc1ccccn1)c1ccc(NC(=O)c2ccc(C(=O)Nc3ccc(C(=NC)Nc4ccccn4)cc3)cc2)cc1` [NSC 90438], the IC50 at Stat3:3, on Stat1:3, on Stat1:1 and on Stat5:5 was > 300 µM throughout.
